In US20260373036A1, “A PERSONAL CARE COMPOSITION” (Concpco, Inc., d/b/a UNILEVER, priority 2022, published 2026):

Test system: TXNRD1 (Thioredoxin reductase 1) gene
Experiment: TXNRD1 (thioredoxin reductase 1) gene expression in normal human epidermal keratinocytes (NHEK) by RT-PCR
Assay type: cell-based
Conditions: 24 hours, normalized to YWHAZ, relative to blank control (1.0)
Experimental: The normal human epidermal keratinocytes (NHEK, Lot: NHS-2021-006) (Archgene Biotechnology, Shanghai, China) were incubated in medium together with or without actives for 24 hours. After incubation, the total RNA for each NHEK was extracted using Qiagen Mini RNeasy kit (Qiagen, Cat. 74106) according to manufacturer's protocol.
The extracted RNA was quantified using Nanodrop 2000 spectrometer (Thermo Fisher Scientific, Waltham, MA, US) and reverse transcribed to generate the template cDNA using the ABScript III RT Mast Mix (Cat. BK20428, ABclonal) according to manufacturer's protocol. Amplification of the gene encoding the TXNRD1 (Thioredoxin reductase 1) gene was performed with RT-PCR reagent (Universal SYBR Green Fast qPCR Mix kit, Cat.: RK21203, ABclonal) on the ABI Vii 7 Real-Time PCR Systems (Applied Biosystems, Thermo fisher scientific, Carlsbad, CA, USA). The Tyrosine 3-Monooxygenase/Tryptophan 5-Monooxygenase Activation Protein Zeta gene (YWHAZ) was selected as the housekeeping gene and all data on relative expression of the target genes was normalized to YWHAZ.

| Fold change for gene expression TXNRD1 (0.05 wt % of LCC in medium) | Molecule | fold induction at 5 µM (Homo sapiens, 5 μM of HR in medium, read-out: Fold change for gene expression TXNRD1) |
| --- | --- | --- |
| – | CCCCCCc1ccc(O)cc1O [HR, 4-hexyl resorcinol] | 1 |
| 1.2 | Lysine carboxymethyl cysteinate [LCC] | – |
